From article PMC6486640, “The ATPase mechanism of UvrA2 reveals the distinct roles of proximal and distal ATPase sites in nucleotide excision repair” (Nucleic Acids Research, 2019)
Values belong to the molecule of their own block, whether it stands above or below them.

What was measured:
[1] = target: T1, T. maritima UvrA Δ117-399 (Thermotoga maritima, UniProt Q9WYV0, DEL117-399); assay: X-ray crystal structure, […] Å; type: binding; settings: ADP in proximal and distal sites
T1 construct: internal deletion of 117-399; preparation in Supplementary Data
T1 sequence (Q9WYV0 other isoform, or with tags, fused parts or gaps DEL117-399): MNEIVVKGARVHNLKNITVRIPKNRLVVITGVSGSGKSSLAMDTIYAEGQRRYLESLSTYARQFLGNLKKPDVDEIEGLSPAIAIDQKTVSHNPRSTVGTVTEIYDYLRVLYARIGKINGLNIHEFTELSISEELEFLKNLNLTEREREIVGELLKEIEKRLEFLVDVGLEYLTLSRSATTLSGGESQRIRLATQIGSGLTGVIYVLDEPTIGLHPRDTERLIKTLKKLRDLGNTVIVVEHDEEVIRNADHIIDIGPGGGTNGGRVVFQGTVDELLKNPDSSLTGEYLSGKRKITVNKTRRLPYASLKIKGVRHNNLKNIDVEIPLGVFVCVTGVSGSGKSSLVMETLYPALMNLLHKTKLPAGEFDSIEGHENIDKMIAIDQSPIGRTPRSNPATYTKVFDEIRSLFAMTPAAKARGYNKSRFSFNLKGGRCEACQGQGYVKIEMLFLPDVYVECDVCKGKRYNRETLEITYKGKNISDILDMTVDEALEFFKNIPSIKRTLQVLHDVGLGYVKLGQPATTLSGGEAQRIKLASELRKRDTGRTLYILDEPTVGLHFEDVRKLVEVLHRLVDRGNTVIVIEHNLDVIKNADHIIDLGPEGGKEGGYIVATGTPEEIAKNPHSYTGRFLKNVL

UvrA2 = target: T2, UvrA2 (Geobacillus stearothermophilus, UniProt A0ACH1EC70); assay: global fit of pre-steady state Pi release (MDCC-PBP stopped-flow), KinTek Explorer; type: biochemical; settings: no DNA; pH 7.4, 5 mM MgCl2, 40°C; distal (high-affinity) sites; best-fit model value; proximal sites are a weaker second site
T2 construct: gene uvrA; pET28a-NHis-UvrA, N-terminal His tag, expressed in E. coli Rosetta (DE3) pLysS; heat-treated to remove ADP; homodimer with proximal and distal ATPase sites per monomer
Text: global fit of pre-steady state Pi release (MDCC-PBP stopped-flow), KinTek Explorer on UvrA2

[2] = target: UvrA2 (UvrA dimer, wild type) (Geobacillus stearothermophilus, UniProt A0ACH1EC70 1-952); assay: fluorescence anisotropy; 0-250 nM UvrA2, 7.5 nM DNA; Equilibrium fluorescence anisotropy, 7.5 nM DNA, 0-250 nM UvrA2; anisotropy buffer and temperature not in the material (other assays of the paper: 20 mM Tris-HCl pH 7.4, 0.15 M NaCl, 5% glycerol, 5 mM MgCl2, 5 mM DTT, 40 C); settings: protein: recombinant, tags: N-terminal His (pET28a-NHis-UvrA), chain copies: 2, blunt

Molecule: Nc1ncnc2c1ncn2[C@@H]1O[C@H](COP(=O)(O)OP(=O)(O)O)[C@@H](O)[C@H]1O [ADP]
X-ray crystal structure, 2.0 Å [1]: the fully ADP-bound structure reported here further supports this hypothesis

Best-fit values (UvrA2): 1 µM
Molecule: Nc1ncnc2c1ncn2[C@@H]1O[C@H](COP(=O)(O)OP(=O)(O)OP(=O)(O)O)[C@@H](O)[C@H]1O [ATP]

B1: fluorescein lesion DNA, 50 bp duplex (dsDNA)
DNA 1: CCTGTCAGCTCGTTCTGAGTTCCAGTAGTAATGTGGCCGTAAGTAATCCA
DNA 2: TGGATTACTTACGGCCACATTACTACTGGAACTCAGAACGAGCTGACAGG
modifications: internal fluorescein-dT (iFluorT) at position 26 of strand 1, acts as lesion
Kd ([2]; label: internal fluorescein (strand 1, T26)): 12 ± 2 nM

B2: native (undamaged) DNA, 50 bp duplex (dsDNA)
DNA 1: TGGATTACTTACGGCCACATTACTACTGGAACTCAGAACGAGCTGACAGG
DNA 2: CCTGTCAGCTCGTTCTGAGTTCCAGTAGTAATGTGGCCGTAAGTAATCCA
Kd ([2]; label: 5' 6-FAM on strand 1 (template)): 45 ± 7 nM
